Results published in patent publication US9452997B2, “Piperidine and piperazine derivatives as autotaxin inhibitors” (Merck Patent GmbH, priority 2009, dated 2016).

These compounds were tested against T1, Recombinant autotaxin (Homo sapiens, UniProt Q13822) (assay: Autotaxin assay (Amplex Red, LPC substrate)). Conditions: % of control at 1E−05 (compound concentration); uninhibited control = 100%.
T1 construct: made in house; host or cells: Hi5 insect cells (baculovirus)
Assay type: biochemical
Summary of the method: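 Recombinant autotaxin (Hi5 baculovirus, 16 ng) pre-incubated with compound 30 min at 22° C, then reacted with 75 μM egg LPC for 90 min at 37° C. Choline released is coupled to H2O2 and Amplex Red fluorescence (ex 485/em 612 nm). IC50 from ten 1:3 dilutions from 30 μM, duplicates, normalised to 500 μM C14 LPA.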

SMILES | % CTRL (1E−05)
N#Cc1ccc(CCC(=O)N2CCC(N3CCN(C(=O)c4ccc5[nH]nnc5c4)CC3)CC2)cc1 [Compound 94, 4-(3-{4-[4-(1H-Benzotriazole-5-carbonyl)-piperazin-1-yl]-piperidin-1-yl}-3-oxo-propyl)-benzonitrile] | 77%

Same assay, conditions: recombinant autotaxin, LPC substrate, Amplex Red detection; values given as upper bounds

SMILES | IC50
O=C(CCc1cc(Cl)cc(Cl)c1)N1CCN(C2CCN(C(=O)c3ccc4[nH]nnc4c3)CC2)CC1 [Compound 69, 1-{4-[1-(1H-Benzotriazole-5-carbonyl)-piperidin-4-yl]-piperazin-1-yl}-3-(3,5-dichloro-phenyl)-propan-1-one] | < 10000 nM
O=C(OCc1ccc(OC(F)(F)F)c(F)c1)N1CCN(C2CCN(C(=O)c3ccc4[nH]nnc4c3)CC2)CC1 [Compound 118, 4-[1-(1H-Benzotriazole-5-carbonyl)-piperidin-4-yl]-piperazine-1-carboxylic acid 3-fluoro-4-trifluoromethoxy-benzyl ester] | < 1000 nM
O=C(OCc1ccc(Cl)cc1F)N1CCC(NC2CCN(C(=O)c3ccc4[nH]nnc4c3)CC2)C1 (stereo not shown) [Compound 63, 3-[1-(1H-Benzotriazole-5-carbonyl)-piperidin-4-ylamino]-pyrrolidine-1-carboxylic acid 4-chloro-2-fluoro-benzyl ester] | < 10000 nM
O=C(OCc1c(F)c(F)c(C(F)(F)F)c(F)c1F)N1CCC(N2CCN(C(=O)c3ccc4[nH]nnc4c3)CC2)CC1 [Compound 144, 4-[4-(1H-Benzotriazole-5-carbonyl)-piperazin-1-yl]-piperidine-1-carboxylic acid 2,3,5,6-tetrafluoro-4-trifluoromethyl-benzyl ester] | < 1000 nM
O=C(Cc1ccc(Cl)cc1)N1CCC(C2CCN(C(=O)c3ccc4[nH]nnc4c3)CC2)CC1 [Compound 23, 1-[1′-(1H-Benzotriazole-5-carbonyl)-[4,4′]bipiperidinyl-1-yl]-2-(4-chloro-phenyl)-ethanone] | < 30000 nM
O=C(NC1CCN(C2CCN(C(=O)OCc3cc(Cl)cc(Cl)c3)CC2)C1)c1ccc2[nH]nnc2c1 (stereo not shown) [Compound 9, 4-{3-[(1H-Benzotriazole-5-carbonyl)-amino]-pyrrolidin-1-yl}-piperidine-1-carboxylic acid 3,5-dichloro-benzyl ester] | < 1000 nM
O=C(OCc1ccc(Cl)cc1F)N1CCN(C2CCN(C(=O)c3ccc4[nH]c(=O)oc4c3)CC2)CC1 [Compound 65, 4-[1-(2-Oxo-2,3-dihydro-benzooxazole-6-carbonyl)-piperidin-4-yl]-piperazine-1-carboxylic acid 4-chloro-2-fluoro-benzyl ester] | < 1000 nM
O=C(OCc1ccc(C(F)(F)F)cc1)N1CCN(C2CCN(C(=O)c3ccc4[nH]nnc4c3)CC2)CC1 [Compound 34, 4-[1-(1H-Benzotriazole-5-carbonyl)-piperidin-4-yl]-piperazine-1-carboxylic acid 4-trifluoromethyl-benzyl ester] | < 1000 nM
O=C(CCc1ccc(Cl)cc1F)N1CCN(C2CCN(C(=O)c3ccc4[nH]c(=O)oc4c3)CC2)CC1 [Compound 64, 6-(4-{4-[3-(4-Chloro-2-fluoro-phenyl)-propionyl]-piperazin-1-yl}-piperidine-1-carbonyl)-3H-benzooxazol-2-one] | < 10000 nM
O=C(NC1CCC(N2CCN(C(=O)OCc3cc(Cl)cc(C(F)(F)F)c3)CC2)CC1)c1ccc2[nH]nnc2c1 (stereo not shown) [Compound 187, 4-{4-[(1H-Benzotriazole-5-carbonyl)-amino]-cyclohexyl}-piperazine-1-carboxylic acid 3-chloro-5-trifluoromethyl-benzyl ester] | < 1000 nM
O=C(OCc1ccc2c(c1)OCO2)N1CCN(C2CCN(C(=O)c3ccc4[nH]nnc4c3)CC2)CC1 [Compound 136, 4-[1-(1H-Benzotriazole-5-carbonyl)-piperidin-4-yl]-piperazine-1-carboxylic acid benzo[1,3]dioxol-5-ylmethyl ester] | < 10000 nM
O=C(Cc1ccc(Cl)cc1)C(=O)N1CCN(C2CCN(C(=O)c3ccc4[nH]nnc4c3)CC2)CC1 [Compound 123, 1-{4-[1-(1H-Benzotriazole-5-carbonyl)-piperidin-4-yl]-piperazin-1-yl}-3-(4-chloro-phenyl)-propane-1,2-dione] | < 10000 nM
O=C(OCc1cc(Br)cc(Br)c1)N1CCN(C2CCN(C(=O)c3ccc4[nH]nnc4c3)CC2)CC1 [Compound 148, 4-[1-(1H-Benzotriazole-5-carbonyl)-piperidin-4-yl]-piperazine-1-carboxylic acid 3,5-dibromo-benzyl ester] | < 1000 nM
O=C(OCc1cc(Cl)cc(Cl)c1)N1CCC(N2CCN(C(=O)c3ccc4[nH]nnc4c3)CC2)CC1 [Compound 20, 4-[4-(1H-Benzotriazole-5-carbonyl)-piperazin-1-yl]-piperidine-1-carboxylic acid 3,5-dichloro-benzyl ester] | < 1000 nM
O=C(OCc1cc(Cl)cc(Cl)c1)N1CCC(N2CCN(C(=O)c3ccc4[nH]c(=O)oc4c3)CC2)CC1 [Compound 25, 4-[4-(2-Oxo-2,3-dihydro-benzooxazole-6-carbonyl)-piperazin-1-yl]-piperidine-1-carboxylic acid 3,5-dichloro-benzyl ester] | < 1000 nM
O=C(Cc1ccc2[nH]nnc2c1)N1CCC(N2CCN(C(=O)Cc3cc(C(F)(F)F)cc(C(F)(F)F)c3)CC2)CC1 [Compound 141, 2-(1H-Benzotriazol-5-yl)-1-(4-{4-[2-(3,5-bis-trifluoromethyl-phenyl)-acetyl]-piperazin-1-yl}-piperidin-1-yl)-ethanone] | < 10000 nM
O=C(CCc1ccccc1O)N1CCC(C2CCN(C(=O)c3ccccc3-c3cccc(C(F)(F)F)c3)CC2)CC1 [Compound 1, 3-(2-Hydroxy-phenyl)-1-[1′-(3′-trifluoromethyl-biphenyl-2-carbonyl)-[4,4′]bipiperidinyl-1-yl]-propan-1-one] | < 1000 nM
O=C(Nc1ccc(-n2cncn2)cc1)C1CC(=O)N(C2CCN(C(=O)OCc3cc(Cl)cc(Cl)c3)CC2)C1 (stereo not shown) [Compound 54, 4-[2-Oxo-4-(4-[1,2,4]triazol-1-yl-phenylcarbamoyl)-pyrrolidin-1-yl]-piperidine-1-carboxylic acid 3,5-dichloro-benzyl ester] | < 10000 nM
O=C(CCc1ccc(C(F)(F)F)cc1)N1CCN(C2CCN(C(=O)c3ccc4[nH]c(=O)oc4c3)CC2)CC1 [Compound 33, 6-(4-{4-[3-(4-Trifluoromethyl-phenyl)-propionyl]-piperazin-1-yl}-piperidine-1-carbonyl)-3H-benzooxazol-2-one] | < 1000 nM
O=C(OCc1ccc(C(F)(F)F)cc1)N1CCC(N2CCC(c3ccc4[nH]c(=O)oc4c3)=N2)CC1 [Compound 107, 4-[3-(2-Oxo-2,3-dihydro-benzooxazol-6-yl)-4,5-dihydro-pyrazol-1-yl]-piperidine-1-carboxylic acid 4-trifluoromethyl-benzyl ester] | < 10000 nM
O=C(Nc1ccc(N2CCN(C(=O)OCc3ccc(C(F)(F)F)cc3)CC2)nc1)c1ccc2[nH]nnc2c1 [Compound 110, 4-{5-[(1H-Benzotriazole-5-carbonyl)-amino]-pyridin-2-yl}-piperazine-1-carboxylic acid 4-trifluoromethyl-benzyl ester] | < 30000 nM
O=C(CC(=O)N1CCC(N2CCN(C(=O)c3ccc4[nH]nnc4c3)CC2)CC1)c1ccc(C(F)(F)F)cc1 [Compound 164, 1-{4-[4-(1H-Benzotriazole-5-carbonyl)-piperazin-1-yl]-piperidin-1-yl}-3-(4-trifluoromethyl-phenyl)-propane-1,3-dione] | < 10000 nM
O=C(OCc1ccc(C(F)(F)F)cc1)N1CCC(N2CCN(C(=O)c3ccc4[nH]nnc4c3)CC2)CC1 [Compound 71, 4-[4-(1H-Benzotriazole-5 carbonyl)-piperazin-1-yl]-piperidine-1-carboxylic acid 4-trifluoromethyl-benzyl ester] | < 1000 nM
O=C(OCc1ccc(SC(F)(F)F)cc1)N1CCN(C2CCN(C(=O)c3ccc4[nH]nnc4c3)CC2)CC1 [Compound 37, 4-[1-(1H-Benzotriazole-5-carbonyl)-piperidin-4-yl]-piperazine-1-carboxylic acid 4-trifluoromethylsulfanyl-benzyl ester] | < 1000 nM
CC(C)c1ccc(COC(=O)N2CCN(C3CCN(C(=O)c4ccc5[nH]nnc5c4)CC3)CC2)cc1 [Compound 43, 4-[1-(1H-Benzotriazole-5-carbonyl)-piperidin-4-yl]-piperazine-1-carboxylic acid 4-isopropyl-benzyl ester] | < 1000 nM
O=C(OCc1ccccc1Cl)N1CCN(C2CCN(C(=O)c3ccc4[nH]nnc4c3)CC2)CC1 [Compound 39, 4-[1-(1H-Benzotriazole-5-carbonyl)-piperidin-4-yl]-piperazine-1-carboxylic acid 2-chloro-benzyl ester] | < 10000 nM
O=C(OCc1ccc(OC(F)(F)F)cc1)N1CCC(N2CCN(C(=O)c3ccc4[nH]nnc4c3)CC2)CC1 [Compound 76, 4-[4-(1H-Benzotriazole-5-carbonyl)-piperazin-1-yl]-piperidine-1-carboxylic acid 4-trifluoromethoxy-benzyl ester] | < 1000 nM
O=C(c1ccc2[nH]nnc2c1)N1CCC(N2CCN(C(=O)C3CC3c3ccc(Cl)cc3)CC2)CC1 (stereo not shown) [Compound 179, (1H-Benzoriazol-5-yl)-(4-{4-[2-(4-chloro-phenyl)-cyclopropanecarbonyl]-piperazin-1-yl}-piperidin-1-yl)-methanone] | < 10000 nM
O=C(OCc1ccc(Cl)cc1)N1CCN(C2CCN(C(=O)c3ccc4[nH]nnc4c3)CC2)CC1 [Compound 42, 4-[1-(1H-Benzotriazole-5-carbonyl)-piperidin-4-yl]-piperazine-1-carboxylic acid 4-chloro-benzyl ester] | < 1000 nM
O=C(OCc1cc(C(F)(F)F)cc(C(F)(F)F)c1)N1CCN(C2CCN(C(=O)c3ccc4[nH]nnc4c3)CC2)CC1 [Compound 35, 4-[1-(1H-Benzotriazole-5-carbonyl)-piperidin-4-yl]-piperazine-1-carboxylic acid 3,5-bis-trifluoromethyl-benzyl ester] | < 1000 nM
